In US20240360178A1, “MACROCYCLIC IMMUNOMODULATORS” (Bristol-Myers Squibb Company, priority 2021, published 2024):
Positions of bridges follow the written chain, without caps; N, C: chain ends. Non-standard residues stand in square brackets, D forms with d. Residues, ends and D or L forms follow the SMILES beside them. Bip = N[C@@H](Cc1ccc(-c2ccccc2)cc1)C(=O)O; NMeF = CN[C@@H](Cc1ccccc1)C(=O)O; 3Pal = N[C@@H](Cc1cccnc1)C(=O)O; 4Pal = N[C@@H](Cc1ccncc1)C(=O)O; dTic = O=C(O)[C@H]1Cc2ccccc2CN1; NMeA = CN[C@@H](C)C(=O)O; Orn = NCCC[C@H](N)C(=O)O; Dab = NCC[C@H](N)C(=O)O

Biological target: T1, human PD-1 (Jurkat-PD-1 cells) / PE-labeled human PD-L1-Ig (Homo sapiens, UniProt Q15116)
T1 construct: expressed in transfected cells; host or cells: Jurkat cell line over-expressing human PD-1
T1 sequence (Q15116 25-288): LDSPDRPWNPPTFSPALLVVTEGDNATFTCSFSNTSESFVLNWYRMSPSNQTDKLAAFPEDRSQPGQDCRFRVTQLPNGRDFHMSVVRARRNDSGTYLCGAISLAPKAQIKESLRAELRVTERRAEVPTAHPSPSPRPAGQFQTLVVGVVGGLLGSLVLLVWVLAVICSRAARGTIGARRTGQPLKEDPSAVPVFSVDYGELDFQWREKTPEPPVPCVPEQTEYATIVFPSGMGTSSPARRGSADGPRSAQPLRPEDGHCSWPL
Assay: Jurkat-PD-1 Cell Binding High-Content Screening Assay (CBA); Jurkat hPD1-PDL1 assay
Conditions: Jurkat cell line over-expressing human PD-1; PE-labeled PD-L1-Ig 20 nM final; compound incubated 2 hours at 37° C.; read-out: Jurkat HPD1-PDL1 IC50
Method in brief: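 Cell binding by imaging: Jurkat line stably over-expressing human PD-1, compound pre-exposure 2 h at 37° C, PE-conjugated PD-L1-Ig 20 nM final, medium DMEM containing 10% FCS.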

| Compound | IC50 [µM] |
| --- | --- |
| CC(C)C[C@@H]1NC(=O)[C@H](CCN)NC(=O)[C@H](Cc2ccccc2)N(C)C(=O)[C@H](C)N(C)C(=O)[C@H](CCC(=O)O)NC(=O)[C@H](Cc2ccc(-c3ccccc3)cc2)NC(=O)[C@H](C(C)C)NC(=O)[C@H](Cc2c[nH]c3ccccc23)NC(=O)[C@H](CC(=O)O)NC(=O)[C@H](Cc2ccc(O)cc2)NC(=O)[C@H](Cc2ccccc2)NC(=O)CSC[C@@H](C(=O)N[C@@H](C)C(N)=O)NC(=O)[C@H]([C@@H](C)O)NC(=O)[C@H](C(C)C)NC1=O [Example 1342] ({CH2CO}-FYDWV[Bip]E[NMeA][NMeF][Dab]LVTCA-NH2; thioether N-14) | 0.07 |
| CC(C)C[C@@H]1NC(=O)[C@H](CCN)NC(=O)[C@H](Cc2ccccc2)N(C)C(=O)[C@H](C)N(C)C(=O)[C@H](CCC(=O)O)NC(=O)[C@H](Cc2ccc(-c3ccccc3)cc2)NC(=O)[C@H](C(C)C)NC(=O)[C@H](Cc2c[nH]c3ccccc23)NC(=O)[C@H](CC(=O)O)NC(=O)[C@H](Cc2ccc(O)cc2)NC(=O)[C@H](Cc2ccccc2)NC(=O)CSC[C@@H](C(=O)N[C@@H](CCC(=O)O)C(N)=O)NC(=O)[C@H]([C@@H](C)O)NC(=O)[C@H](C(C)C)NC1=O [Example 1343] ({CH2CO}-FYDWV[Bip]E[NMeA][NMeF][Dab]LVTCE-NH2; thioether N-14) | 0.37 |
| CC(C)C[C@@H]1NC(=O)[C@H](CCCNC(=N)N)NC(=O)[C@H](Cc2ccccc2)N(C)C(=O)[C@H](C)N(C)C(=O)[C@H](CCC(=O)O)NC(=O)[C@H](Cc2ccc(-c3ccccc3)cc2)NC(=O)[C@H](C(C)C)NC(=O)[C@H](Cc2c[nH]c3ccccc23)NC(=O)[C@H](CC(=O)O)NC(=O)[C@H](Cc2ccc(O)cc2)NC(=O)[C@H](Cc2ccccc2)NC(=O)CSC[C@@H](C(=O)N[C@@H](C)C(N)=O)NC(=O)[C@H]([C@@H](C)O)NC(=O)[C@H](C(C)C)NC1=O [Example 1344] ({CH2CO}-FYDWV[Bip]E[NMeA][NMeF]RLVTCA-NH2; thioether N-14) | 0.22 |
| CC(C)C[C@@H]1NC(=O)[C@H](CCCN)NC(=O)[C@H](Cc2ccccc2)N(C)C(=O)[C@H](C)N(C)C(=O)[C@H](CCCNC(=N)N)NC(=O)[C@H](Cc2ccc(-c3ccccc3)cc2)NC(=O)[C@H](C(C)C)NC(=O)[C@H](Cc2c[nH]c3ccccc23)NC(=O)[C@H](CC(=O)O)NC(=O)[C@H](Cc2ccc(O)cc2)NC(=O)[C@H](Cc2ccccc2)NC(=O)CSC[C@@H](C(=O)N[C@@H](C)C(N)=O)NC(=O)[C@H]([C@@H](C)O)NC(=O)[C@H](C(C)C)NC1=O [Example 1345] ({CH2CO}-FYDWV[Bip]R[NMeA][NMeF][Orn]LVTCA-NH2; thioether N-14) | 0.12 |
| CC(C)C[C@@H]1NC(=O)[C@H](CCCNC(=N)N)NC(=O)[C@H](Cc2ccccc2)N(C)C(=O)[C@H](C)N(C)C(=O)[C@H](CCCN)NC(=O)[C@H](Cc2ccc(-c3ccccc3)cc2)NC(=O)[C@H](C(C)C)NC(=O)[C@H](Cc2c[nH]c3ccccc23)NC(=O)[C@H](CC(=O)O)NC(=O)[C@H](Cc2ccc(O)cc2)NC(=O)[C@H](Cc2ccccc2)NC(=O)CSC[C@@H](C(=O)N[C@@H](C)C(N)=O)NC(=O)[C@H]([C@@H](C)O)NC(=O)[C@H](C(C)C)NC1=O [Example 1346] ({CH2CO}-FYDWV[Bip][Orn][NMeA][NMeF]RLVTCA-NH2; thioether N-14) | 0.31 |
| CC(C)C[C@@H]1NC(=O)[C@H](CCCN)NC(=O)[C@H](Cc2ccccc2)N(C)C(=O)[C@H](C)N(C)C(=O)[C@H](CCC(=O)O)NC(=O)[C@H](Cc2ccc(-c3ccccc3)cc2)NC(=O)[C@H](C(C)C)NC(=O)[C@H](Cc2c[nH]c3ccccc23)NC(=O)[C@H](CC(=O)O)NC(=O)[C@H](Cc2ccc(O)cc2)NC(=O)[C@H](Cc2ccccc2)NC(=O)CSC[C@@H](C(=O)N[C@@H](CCC(=O)O)C(N)=O)NC(=O)[C@H]([C@@H](C)O)NC(=O)[C@H](C(C)C)NC1=O [Example 1350] ({CH2CO}-FYDWV[Bip]E[NMeA][NMeF][Orn]LVTCE-NH2; thioether N-14) | 0.21 |
| CC(C)C[C@@H]1NC(=O)[C@H](CCCNC(=N)N)NC(=O)[C@H](Cc2ccccc2)N(C)C(=O)[C@H](C)N(C)C(=O)[C@H](CCC(=O)O)NC(=O)[C@H](Cc2ccc(-c3ccccc3)cc2)NC(=O)[C@H](C(C)C)NC(=O)[C@H](Cc2c[nH]c3ccccc23)NC(=O)[C@H](CC(=O)O)NC(=O)[C@H](Cc2ccc(O)cc2)NC(=O)[C@H](Cc2ccccc2)NC(=O)CSC[C@@H](C(=O)N[C@@H](CCC(=O)O)C(N)=O)NC(=O)[C@H]([C@@H](C)O)NC(=O)[C@H](C(C)C)NC1=O [Example 1351] ({CH2CO}-FYDWV[Bip]E[NMeA][NMeF]RLVTCE-NH2; thioether N-14) | 0.38 |
| CC(C)C[C@@H]1NC(=O)[C@H](CCCN)NC(=O)[C@H]2Cc3ccccc3CN2C(=O)[C@H](C)N(C)C(=O)[C@H](CCCNC(=N)N)NC(=O)[C@H](Cc2ccc(-c3ccccc3)cc2)NC(=O)[C@H](C(C)C)NC(=O)[C@H](Cc2c[nH]c3ccccc23)NC(=O)[C@H](CC(=O)O)NC(=O)[C@H](Cc2ccc(O)cc2)NC(=O)[C@H](CC(N)=O)NC(=O)CSC[C@@H](C(=O)N[C@@H](C)C(N)=O)NC(=O)[C@H]([C@@H](C)O)NC(=O)[C@H](C(C)C)NC1=O [Example 1356] ({CH2CO}-NYDWV[Bip]R[NMeA][dTic][Orn]LVTCA-NH2; thioether N-14) | 0.27 |

Other lines, results leading:

| IC50 [µM] | Compound |
| --- | --- |
| 0.16 | CC(C)C[C@@H]1NC(=O)[C@H](CCCNC(=N)N)NC(=O)[C@H](Cc2ccccc2)N(C)C(=O)[C@H](C)N(C)C(=O)[C@H](CCCN)NC(=O)[C@H](Cc2ccc(-c3ccccc3)cc2)NC(=O)[C@H](C(C)C)NC(=O)[C@H](Cc2c[nH]c3ccccc23)NC(=O)[C@H](CC(=O)O)NC(=O)[C@H](Cc2ccc(O)cc2)NC(=O)[C@H](CC(N)=O)NC(=O)CSC[C@@H](C(=O)N[C@@H](C)C(N)=O)NC(=O)[C@H]([C@@H](C)O)NC(=O)[C@H](C(C)C)NC1=O [Example 1347] ({CH2CO}-NYDWV[Bip][Orn][NMeA][NMeF]RLVTCA-NH2; thioether N-14) |
| 0.22 | CC(C)C[C@@H]1NC(=O)[C@H](CCCNC(=N)N)NC(=O)[C@H](Cc2ccccc2)N(C)C(=O)[C@H](C)N(C)C(=O)[C@H](CCCNC(=N)N)NC(=O)[C@H](Cc2ccc(-c3ccccc3)cc2)NC(=O)[C@H](C(C)C)NC(=O)[C@H](Cc2c[nH]c3ccccc23)NC(=O)[C@H](CC(=O)O)NC(=O)[C@H](Cc2ccc(O)cc2)NC(=O)[C@H](Cc2cccnc2)NC(=O)CSC[C@@H](C(=O)N[C@@H](C)C(N)=O)NC(=O)[C@H]([C@@H](C)O)NC(=O)[C@H](C(C)C)NC1=O [Example 1348] ({CH2CO}-[3Pal]YDWV[Bip]R[NMeA][NMeF]RLVTCA-NH2; thioether N-14) |
| 0.33 | CC(C)C[C@@H]1NC(=O)[C@H](CCCNC(=N)N)NC(=O)[C@H](Cc2ccccc2)N(C)C(=O)[C@H](C)N(C)C(=O)[C@H](CCCNC(=N)N)NC(=O)[C@H](Cc2ccc(-c3ccccc3)cc2)NC(=O)[C@H](C(C)C)NC(=O)[C@H](Cc2c[nH]c3ccccc23)NC(=O)[C@H](CC(=O)O)NC(=O)[C@H](Cc2ccncc2)NC(=O)[C@H](CC(N)=O)NC(=O)CSC[C@@H](C(=O)N[C@@H](C)C(N)=O)NC(=O)[C@H]([C@@H](C)O)NC(=O)[C@H](C(C)C)NC1=O [Example 1349] ({CH2CO}-N[4Pal]DWV[Bip]R[NMeA][NMeF]RLVTCA-NH2; thioether N-14) |
| 0.42 | CC(C)C[C@@H]1NC(=O)[C@H](CCCN)NC(=O)[C@H](Cc2ccccc2)N(C)C(=O)[C@H](C)N(C)C(=O)[C@H](CCCNC(=N)N)NC(=O)[C@H](Cc2ccc(-c3ccccc3)cc2)NC(=O)[C@H](C(C)C)NC(=O)[C@H](Cc2c[nH]c3ccccc23)NC(=O)[C@H](CC(=O)O)NC(=O)[C@H](Cc2ccc(O)cc2)NC(=O)[C@H](CC(N)=O)NC(=O)CSC[C@@H](C(=O)N[C@@H](CCC(=O)O)C(N)=O)NC(=O)[C@H]([C@@H](C)O)NC(=O)[C@H](C(C)C)NC1=O [Example 1352] ({CH2CO}-NYDWV[Bip]R[NMeA][NMeF][Orn]LVTCE-NH2; thioether N-14) |
| 0.09 | CC(C)C[C@@H]1NC(=O)[C@H](CCCN)NC(=O)[C@H](Cc2ccccc2)N(C)C(=O)[C@H](C)N(C)C(=O)[C@H](CCCNC(=N)N)NC(=O)[C@H](Cc2ccc(-c3ccccc3)cc2)NC(=O)[C@H](C(C)C)NC(=O)[C@H](Cc2c[nH]c3ccccc23)NC(=O)[C@H](CC(=O)O)NC(=O)[C@H](Cc2ccc(O)cc2)NC(=O)[C@H](CC(N)=O)NC(=O)CSC[C@@H](C(=O)N[C@@H](CO)C(N)=O)NC(=O)[C@H]([C@@H](C)O)NC(=O)[C@H](C(C)C)NC1=O [Example 1353] ({CH2CO}-NYDWV[Bip]R[NMeA][NMeF][Orn]LVTCS-NH2; thioether N-14) |
| 0.21 | CC(C)C[C@@H]1NC(=O)[C@H](CCCCN)NC(=O)[C@H](Cc2ccccc2)N(C)C(=O)[C@H](C)N(C)C(=O)[C@H](CCCNC(=N)N)NC(=O)[C@H](Cc2ccc(-c3ccccc3)cc2)NC(=O)[C@H](C(C)C)NC(=O)[C@H](Cc2c[nH]c3ccccc23)NC(=O)[C@H](CC(=O)O)NC(=O)[C@H](Cc2ccc(O)cc2)NC(=O)[C@H](CC(N)=O)NC(=O)CSC[C@@H](C(=O)N[C@@H](CO)C(N)=O)NC(=O)[C@H]([C@@H](C)O)NC(=O)[C@H](C(C)C)NC1=O [Example 1354] ({CH2CO}-NYDWV[Bip]R[NMeA][NMeF]KLVTCS-NH2; thioether N-14) |
| 0.41 | CC(C)C[C@@H]1NC(=O)[C@H](CCCNC(=N)N)NC(=O)[C@H](Cc2ccccc2)N(C)C(=O)[C@H](C)N(C)C(=O)[C@H](CCCNC(=N)N)NC(=O)[C@H](Cc2ccc(-c3ccccc3)cc2)NC(=O)[C@H](C(C)C)NC(=O)[C@H](Cc2c[nH]c3ccccc23)NC(=O)[C@H](CC(=O)O)NC(=O)[C@H](Cc2ccc(O)cc2)NC(=O)[C@H](CC(N)=O)NC(=O)CSC[C@@H](C(=O)N[C@@H](C)C(N)=O)NC(=O)[C@H]([C@@H](C)O)NC(=O)[C@H](C(C)C)NC1=O [Example 1355] ({CH2CO}-NYDWV[Bip]R[NMeA][NMeF]RLVTCA-NH2; thioether N-14) |
